The values that follow come from PMC2996101 (Journal of natural products, 2009).

Test [1] has as its target T1, human 5-lipoxygenase (5-hLO) (Homo sapiens, UniProt P09917).
T1 sequence (P09917 1-674): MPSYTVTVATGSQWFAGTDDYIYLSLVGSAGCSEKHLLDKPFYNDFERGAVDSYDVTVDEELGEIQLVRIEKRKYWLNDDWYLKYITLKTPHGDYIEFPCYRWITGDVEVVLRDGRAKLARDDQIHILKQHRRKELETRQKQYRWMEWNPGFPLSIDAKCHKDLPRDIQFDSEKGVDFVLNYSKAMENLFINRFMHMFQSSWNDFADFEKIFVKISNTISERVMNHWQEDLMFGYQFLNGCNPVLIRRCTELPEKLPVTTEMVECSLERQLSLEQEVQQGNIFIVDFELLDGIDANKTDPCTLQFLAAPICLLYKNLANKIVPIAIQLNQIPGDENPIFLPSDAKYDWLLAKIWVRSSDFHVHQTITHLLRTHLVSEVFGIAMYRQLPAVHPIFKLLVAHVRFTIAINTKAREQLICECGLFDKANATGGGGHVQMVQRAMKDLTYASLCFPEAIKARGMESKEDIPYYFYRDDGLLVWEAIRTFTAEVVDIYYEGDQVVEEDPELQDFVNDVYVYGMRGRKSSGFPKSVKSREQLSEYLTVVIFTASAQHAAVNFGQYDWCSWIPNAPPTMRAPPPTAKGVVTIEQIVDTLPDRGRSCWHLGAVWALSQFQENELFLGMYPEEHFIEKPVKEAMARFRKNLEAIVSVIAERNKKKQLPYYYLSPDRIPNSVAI
As to the kind of experiment: Lipoxygenase assay, 5-hLO. Conditions: ratio of IC50 values.

Another test deals with 15-hLO. The settings on record: read-out: previous IC50 15-hLO; previous work without Triton X100 ref 9; cited from earlier work.
Test [2] has as its system 12-hLO. Conditions: read-out: previous IC50 12-hLO; previous work without Triton X100 ref 9; cited from earlier work.
The subject of test [3] is human lung adenocarcinoma cells over human leukemic lymphoid cells. As to the kind of experiment: Soft agar disk diffusion assay. Format: cell-based. The settings on record: Table S4.
In test [4] the test system is 12-hLO. Conditions: data from literature ref 20; cited from earlier work.

Take `CC1(C)CCC[C@]2(C)[C@H]3C=C4C=C(O)C(=O)C=C4O[C@@]3(C)CC[C@@H]12` [Compound 1, puupehenone]: in test [1], the 12-hLO/5-hLO selectivity ratio is reported as 32 and the 15-hLO/5-hLO selectivity ratio is recorded as 9. Besides, the IC50 in the test on 15-hLO was 0.8 µM. In addition, the IC50 in the test on 12-hLO [2] was 8.3 µM. Moreover, the “selectivity against solid tumor cells” value in test [3] was “modest selectivity”.
Regarding `CC1(C)CCC[C@]2(C)[C@H]3C=C4C(=CC(=O)[C@@H]4O)O[C@@]3(C)CC[C@@H]12` [Compound 3, 20-hydroxyhaterumadienone], in test [1], the 12-hLO/5-hLO selectivity ratio is ~ 3 and the 15-hLO/5-hLO selectivity ratio was ~ 3.
Take `CC1(C)CCC[C@]2(C)C3=CC4=CC(=O)C(=O)C=C4O[C@@]3(C)CC[C@@H]12` [Compound 5, puupehedione]: the 12-hLO/5-hLO selectivity ratio in test [1] stood at 4.
As to `CC1=C(CC/C(C)=C/CC/C(C)=C/Cc2cc(O)ccc2O)C(C)(C)CCC1` [Compound 9, jaspaquinol], in test [1], the 12-hLO/5-hLO selectivity ratio is on record as over 111 and the 15-hLO/5-hLO selectivity ratio came to 42. In the test with 15-hLO, the IC50 is 0.3 µM. For the same compound, the IC50 with 12-hLO [2] is 4.5 µM.
As for `C[C@@H](c1cc2ccccc2s1)N(O)C(N)=O` [Compound 13, zileuton], the 12-hLO activity result in the test with 12-hLO [4] is on record as “Active ^*, ^**”.
